# Values quoted from earlier work, collected in US7625901B2, “Substituted monocyclic CGRP receptor antagonists” (Merck & Co., Inc., priority 2006, dated 2009).
# No end group written: not given here.
# What was measured:
# [1] = system: headache induced by CGRP infusion; details: control group
# facial blood flow [2] = details: marmoset, electrical stimulation of the trigeminal ganglion
# [3] = system: acute attacks of migraine; details: clinical trials
# facial blood flow [4] = details: rat, trigeminal ganglion stimulation
# [5] = system: diameter of the middle meningeal artery; details: rats, electrical stimulation of the dura mater, prior administration
molecule,measurement,setting,value
NCCCC[C@H](NC(=O)[C@@H](Cc1cc(Br)c(O)c(Br)c1)NC(=O)N1CCC(N2Cc3ccccc3NC2=O)CC1)C(=O)N1CCN(c2ccncc2)CC1 [BIBN4096BS],prevention of headache induced by CGRP infusion,[1],able to prevent headache
same,block of increase in facial blood flow,facial blood flow [2],could be blocked
same,treating acute attacks of migraine,[3],effective
"CGRP(8-37): a peptide CGRP antagonist; fragment of CGRP that lacks seven N-terminal amino acid residues (VTHRLAGLLSRSGGVVKNNFVPTNVGSKAF; ends and bridges not checked; UniProt P06881 90-119, looked up, fragment)",inhibition of increased facial blood flow,facial blood flow [4],inhibited
same,block of increased diameter of the middle meningeal artery,[5],blocked
